{"source": "patent US11844805B2", "about": "“Formulations of testosterone and methods of treatment therewith” (BOARD OF REGENTS, THE UNIVERSITY OF TEXAS SYSTEM, priority 2014, dated 2023)", "origin": "cited, not measured here", "key": {"[1]": {"settings": "intranasal administration; baseline mean 2.5 pmol/L"}, "[2]": {"settings": "women, single dose, sublingual"}}}
{"smiles": "C[C@]12CC[C@H]3[C@@H](CCC4=CC(=O)CC[C@@]43C)[C@@H]1CC[C@@H]2O", "note": "[testosterone]", "values": [{"measurement": "maximum testosterone concentration (mean)", "setting": "[1]", "value": 168.2, "unit": "pmol/L"}, {"measurement": "effect on subjective sexual desire, genital responsiveness and genital arousal", "setting": "[2]", "value": "increase subjective sexual desire, genital responsiveness, and genital arousal"}]}
